Results from ChEMBL document CHEMBL5120866, “Design and Synthesis of Novel Celastrol Derivatives as Potential Anticancer Agents against Gastric Cancer Cells” (J Nat Prod, 2022).
pIC50: −log10 of the molar value. Active and inactive are the calls of the source. No cut-off for these calls is given here.

What was measured:
BGC-823 [1] = experiment: Induction of mitochondrial dysfunction in human BGC-823 cells assessed as […] by measuring reduction in red fluorescence at 0.15 to 0.6 uM incubated for 24 hrs by inverted fluorescent microscopic analysis; format: functional, cell-based; settings: dose 0.15-0.6 µM
HepG2 = experiment: Antiproliferative activity against human HepG2 cells assessed as cell growth inhibition incubated for 48 hrs by MTT assay; format: functional, cell-based; settings: HepG2, 48 h
[2] = Toxicity in athymic BALB/c nude mouse assessed as effect on liver at 1.5 mg/kg, ip measured after 21 days by H and E staining based histopathological analysis; format: organism-based; settings: in vivo, 504 h, time 21 day
BGC-823 [3] = experiment: Induction of cell cycle arrest in human BGC-823 cells assessed as accumulation of cells at G0/G1 phase at 0.3 uM incubated for 24 hrs by PI staining based flow cytometry method (reference value: 50.66%); format: functional
BGC-823 [4] = experiment: Induction of cell cycle arrest in human BGC-823 cells assessed as accumulation of cells at G2/M phase at 0.6 uM incubated for 24 hrs by PI staining based flow cytometry method (reference value: 22.86%); format: functional
[5] = Toxicity in athymic BALB/c nude mouse assessed as effect on lung at 1.5 mg/kg, ip measured after 21 days by H and E staining based histopathological analysis; format: organism-based; settings: in vivo, 504 h, time 21 day
BGC-823 [6] = experiment: Induction of apoptosis in human BGC-823 cells assessed as increase in number of apoptotic cells at 0.15 to 0.6 uM incubated for 24 hrs by Hoechst 33342 staining based flourescence microscopy method; format: functional, cell-based; settings: dose 0.15-0.6 µM
BGC-823 [7] = experiment: Induction of apoptosis in human BGC-823 cells assessed as early apoptotic cells at 0.15 uM incubated for 24 hrs by annexin-V-FITC and PI staining based flow cytometry analysis (reference value: 2.4%); format: functional
BGC-823 [8] = experiment: Antitumor activity against human BGC-823 cells xenografted in athymic BALB/c nude mouse assessed as reduction in mitosis at 1.5 mg/kg, ip measured after 21 days by H and E staining based analysis; format: functional, organism-based; settings: time 21.0 day
BGC-823 [9] = experiment: Antitumor activity against human BGC-823 cells xenografted in athymic BALB/c nude mouse assessed increase in ROS level in tumor tissue by measuring increase in red fluorescence at 1.5 mg/kg, ip measured after 21 days by DHE staining based fluorescence microscopic analysis; format: functional, organism-based; settings: time 21.0 day
BGC-823 [10] = experiment: Induction of apoptosis in human BGC-823 cells assessed as early apoptotic cells at 0.3 uM incubated for 24 hrs by annexin-V-FITC and PI staining based flow cytometry analysis (reference value: 2.4%); format: functional
HCT-116 = experiment: Antiproliferative activity against human HCT-116 cells assessed as cell growth inhibition incubated for 48 hrs by MTT assay; format: functional, cell-based; settings: HCT-116, 48 h
[11] = Toxicity in athymic BALB/c nude mouse assessed as effect on heart at 1.5 mg/kg, ip measured after 21 days by H and E staining based histopathological analysis; format: organism-based; settings: in vivo, 504 h, time 21 day
BGC-823 [12] = experiment: Upregulation of Bcl-2 family proteins in human BGC-823 cells at 0.15 to 0.6 uM incubated for 24 hrs by Western blot analysis; format: functional, cell-based; settings: dose 0.15-0.6 µM
BGC-823 [13] = experiment: Induction of apoptosis in human BGC-823 cells assessed as necrotic cells at 0.15 uM incubated for 24 hrs by annexin-V-FITC and PI staining based flow cytometry analysis (reference value: 0.6%); format: functional

- pIC50 (HepG2): 6.46
- pIC50 (HCT-116): 6.39
Compound: CCOC(=O)c1cnn(CCCOC(=O)[C@]2(C)CC[C@]3(C)CC[C@]4(C)C5=CC=C6C(=CC(=O)C(O)=C6C)[C@]5(C)CC[C@@]4(C)[C@@H]3C2)c1
- Activity (BGC-823 [1]): Active
- Activity [2]: Non-Toxic
- Activity (BGC-823 [3]): 46.1%
- Activity (BGC-823 [4]): 34.73%
- Activity [5]: Non-Toxic
- Activity (BGC-823 [6]): Active
- Activity (BGC-823 [7]): 4.4%
- Activity (BGC-823 [8]): Active
- Activity (BGC-823 [9]): Active
- Activity (BGC-823 [10]): 16.5%
- Activity [11]: Non-Toxic
- Activity (BGC-823 [12]): Active
- Activity (BGC-823 [13]): 0.2%
